From PubChem BioAssay (NCI) come the findings set out here.

Assay in all cases: growth of human tumour cells (NCI), 48 h
Test [1] concerns 786-0 renal.
In test [2] the test system is DU-145 prostate.
Test [3] has as its system HCT-116 colon.
The subject of test [4] is LOX IMVI melanoma.
Test [5] has as its system M14 melanoma.
In test [6] the test system is MDA-MB-435.
The subject of test [7] is SK-MEL-2 melanoma.
The subject of test [8] is SN12C renal.
In test [9] the test system is TK-10 renal.
Test [10] concerns CCRF-CEM leukemia.

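Exposure lasted 48 hours, with cells grown in 96-well plates and compounds tested at five concentrations. Abbreviation: GI50, concentration required for 50% inhibition of growth. TGI marks complete inhibition of growth.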 Where only a bound is given, the exact number is not on record here.

As for `CC1=C(CO)C(=O)O[C@@H]([C@@H](C)[C@H]2CC[C@H]3[C@@H]4C[C@H]5O[C@]56[C@@H](O)C=CC(=O)[C@]6(C)[C@H]4CC[C@]23C)C1`, the TGI in test [1] came to 1.73 µM; in test [2] it was 0.91 µM; in test [3], 0.538 µM; in test [4], 0.547 µM; in [5], 1.06 µM; in [6] it was 0.976 µM. Besides, the TGI in [7] amounted to 1.93 µM; in test [8], 1.78 µM; in test [9], 1.99 µM. The GI50 is 0.294 µM in test [2], 0.172 µM in test [4], 0.252 µM in [6] and 0.463 µM in test [8].
Turning to `O=C1CC(c2cccc(Cl)c2)Oc2ccccc21` (configuration not stated), the TGI in test [1] was 39.5 µM; in [10], 48.4 µM; in test [2], 38.2 µM; in test [3] it was 31.3 µM; in test [4], 56.5 µM; in test [5], 36 µM. Further, the TGI in [6] is 38.1 µM; in test [7] it was 35.6 µM.
As to `NC1=NC(SCc2ccccc2CCl)c2ncn(Cc3ccccc3CCl)c2N1` (configuration not stated), the GI50 in test [1] was 1.85 µM; in test [10] it was 1.79 µM; in test [2] it was 1.35 µM; in test [3], 1.47 µM; in test [4], 1.35 µM; in test [6], 1.53 µM. Also, the figures for the GI50 in [7], in [8] and in test [9] were 2.06 µM, 2.76 µM and 3.29 µM, respectively. In addition, the TGI in test [1] worked out at 3.97 µM; in [10], 5.68 µM; in test [2], 2.7 µM; in test [3], 3.06 µM; in test [4], 2.92 µM; in test [6] it was 3.28 µM. Further, the TGI was 4.89 µM in test [7], 9.85 µM in [8] and 11.9 µM in [9].
Regarding `CCN(CC)CCCNCc1cc(-c2ccccc2)nc2cc(Cl)ccc12`, the GI50 is 2.41 µM in test [1]; 11.7 µM in test [2]; 1.46 µM in test [3]; 1.87 µM in [4]; 1.92 µM in test [5]; 1.84 µM in test [6]. The GI50 in [7] is 2.32 µM; in [8] it was 4.69 µM; in test [9], 3.27 µM. Moreover, the TGI in test [1] is 8.77 µM; in test [2], 24.5 µM; in test [3], 4.28 µM; in [4], 4.27 µM; in test [5] it was 3.63 µM; in [6], 3.81 µM. Besides, the TGI in test [7] amounted to 4.55 µM; in test [8] it was 18.2 µM; in test [9], 10.2 µM.
Consider `Cc1cc(=O)[nH]c(N/N=C/c2ccccc2O)n1`, for which the GI50 in test [1] was 12.7 µM; in [10] it was 4.02 µM; in test [2] it was 15.3 µM; in [3], 2.46 µM; in [4], 8.02 µM; in [5], 3.56 µM. Further, the GI50 in [6] was 18.7 µM; in test [7] it was greater than 100 µM; in [8], 18.7 µM. The TGI in [1] is greater than 100 µM; in test [10] it was greater than 100 µM; in [2] it was greater than 100 µM; in test [3] it was greater than 100 µM; in test [4] it was greater than 100 µM; in test [5] it was 26.3 µM. Also, the TGI in [6], in test [7] and in test [8] was greater than 100 µM in each case.
`N#CC1=C(N)NC(N2CCOCC2)=NC12Nc1ccccc1O2` (configuration not stated): the GI50 in [1] is 21.5 µM; in [10] it was 44 µM; in test [2], 59.3 µM; in test [4], 23.7 µM; in test [5] it was 39.6 µM; in test [6] it was 23.5 µM. In addition, the GI50 in test [7] was 39.7 µM; in test [8], 96.4 µM; in [9] it was 34 µM. For the same molecule, the TGI was 60.1 µM in test [1]; greater than 100 µM in [10]; greater than 100 µM in test [2]; 81 µM in test [4]; greater than 100 µM in test [5]; 70.2 µM in test [6]. Further, the TGI in test [7], in test [8] and in test [9] was greater than 100 µM throughout.
On to `COc1cc(C2c3cc4c(cc3OC(O)C2C)OCO4)cc(OC)c1OC` (configuration not stated), for which the TGI in [1] is greater than 100 µM; in [2], greater than 100 µM; in test [3], greater than 69.9 µM; in [4], greater than 100 µM; in test [5] it was 30.2 µM; in test [6], 0.156 µM. Besides, the TGI in [7] was 13.3 µM; in test [8] it was greater than 65 µM; in test [9], greater than 100 µM.
In the case of `C=C(C)[C@@H]1CCc2c(O)c(O)c(=O)cc(C)c2C1`, the TGI in test [1], in test [2], in test [3], in test [4], in test [5] and in test [6] was greater than 100 µM in each case. Further, the TGI in test [7] was greater than 100 µM; in test [8], greater than 100 µM; in test [9] it was 43.7 µM.
`O=C1CS/C(=N/S(=O)(=O)c2ccc(N3N=C4c5ccccc5CC4C3c3cccs3)cc2)N1C(=O)c1ccccc1` (configuration not stated): the GI50 was 48.8 µM in test [1]; 37.5 µM in test [10]; 38.2 µM in test [2]; 22 µM in test [3]; 22.7 µM in test [4]; 44.7 µM in test [5]. Besides, the GI50 in [6] was 37.4 µM; in test [7], greater than 100 µM; in test [8], 49.6 µM. For the same molecule, the TGI in [1] was greater than 100 µM; in [10], greater than 100 µM; in test [2] it was greater than 100 µM; in test [3], 55.9 µM; in test [4], 54 µM; in test [5], greater than 100 µM. The TGI in [6], in test [7] and in test [8] was greater than 100 µM each time.
Take `CC(C)[P+](c1ccccc1)(c1ccccc1)c1ccccc1`: the GI50 in test [1] was 32.5 µM; in test [10], 4.2 µM; in test [2], 7.29 µM; in test [3] it was 3.94 µM; in [4], 9.94 µM; in test [5] it was 11.2 µM. Besides, the GI50 in [6] is 2.65 µM; in test [7] it was 3.77 µM; in test [8], 11.5 µM. Moreover, the TGI in test [1], in [10], in test [2], in test [3], in [4] and in test [5] was greater than 100 µM throughout. Besides, the TGI in test [6] is 25.3 µM; in test [7], 21.9 µM; in [8] it was greater than 100 µM.
